Data taken from patent US10829446B2, “Aryl sulfonohydrazides” (MONASH UNIVERSITY, priority 2015, dated 2020).

What was measured:
Assay type in all cases: cell-based
[1] = system: mouse embryonic fibroblasts expressing KrasG12V; test: Bioassay 4: cumulative cell counts, KrasG12V expression; details: for Cumulative Cell Counts: KrasG12V
Method: To test if cells expressing mutant forms of RAS sensitized to senescence induction, MOZ inhibitors were combined with the ectopic expression of KRASG12V. Cells are plated in triplicate cultures at 10,204 cells/cm2 then transfected with control retroviral vectors pBABE or pBABE containing a mutant KrasG12V expression cassette. Cultures were maintained at 3% O2. Selection for transfected cells is achieved using puromycin. Compounds are tested at 0 μM 1 μM, 2.5 μM, and 5 μM. After 48 hours, cells are passaged and counted, then replated at 10,204/cm2. This procedure is continued for 336 hours. The total number of cells produced at each passage is then calculated and compared between treatment groups. Cellular senescence is determined by cell cycle arrest. Comparisons are between cells treated with vehicle only expressing the control vector, cells treated with 5 μM expressing the control vector (concentration shown in bioassay 1 to produce cellular senescence) and cells treated with 0 uM 1 μM, 2.5 μM, and 5 μM expressing the KrasV12 expressing vector vector

[2] = system: Eμ-Myc pre-leukemia pre-B cells; test: Bioassay 6: proliferation curves of pre-B cells on OP9 feeder layer, Eμ-Myc
Excerpt: Pre B cells are isolated from bone marrow according to the criterion: cell surface expression of B220, CD19, but not cKit or IgM. Proliferation curves of wild type pre-B cells and Ep-Myc pre-leukemia pre B cells are generated by counting cells cultured on OP9 cell feeder layer in the presence of the growth factor IL-7. Media is changed every two days and cells are passaged every 4 days.

[3] = system: Eμ-Myc pre-leukemia pro-B cells; test: Bioassay 5: pro-B cell colony formation in methylcellulose, Eμ-Myc
Method: Pro-B cells are purified by positive selection using antiCD19-magnetic beads and fluorescence activated cell sorting using the criterion: cell surface expression of B220, CD19 and cKit but not IgM. After purification, 25,000 pro-B cells are seeded onto 3.5 cm culture dishes plate containing methylcellulose (MethoCult M3630, STEM CELL technologies) for 7 days. After 7 days culture, colonies in which there were more than 50 cells are counted. Subsequently, 190,000 pro-B cells are replated into methylcellulose for another 7 days of culture, followed by enumeration.

For `Cc1cc(-c2ccccc2)cc(C(=O)NNS(=O)(=O)c2ccccc2)c1F` [Compound 36], the “Cumulative Cell Counts” value ([1]; 1 μm, 96 h) was 128333.3, the “Cumulative Cell Counts” value ([1]; 1 μm, 336 h) was 132000 and the “Cumulative Cell Counts” value ([1]; 2.5 μm, 96 h) was 141666.7. The “Cumulative Cell Counts” value ([1]; 2.5 μm, 336 h) was 94133.33, the “Cumulative Cell Counts” value ([1]; 5 μm, 96 h) was 126666.7 and the “Cumulative Cell Counts” value ([1]; 5 μm, 336 h) was 50940. The “cell number in the presence of mutant KRas” value ([1]; in words) was “dose dependent decrease in cell number”, the “cumulative average cell number” value ([2]; 0.2 μM, Day 4) was 373055 and the “cumulative average cell number” value ([2]; 0.2 μM, Day 8) was 1110631. For the same compound, the “cumulative average cell number” value ([2]; 0.2 μM, Day 12) was 464403, the “cumulative average cell number” value ([2]; 0.2 μM, Day 16) was 81501 and the “cumulative average cell number” value ([2]; 1 μM, Day 4) was 172777. The “cumulative average cell number” value ([2]; 1 μM, Day 8) was 135815, the “cumulative average cell number” value ([2]; 1 μM, Day 12) was 29983 and the “cumulative average cell number” value ([2]; 1 μM, Day 16) was 0. The “cumulative average cell number” value ([2]; 5 μM, Day 4) was 79444, the “cumulative average cell number” value ([2]; 5 μM, Day 8) was 33236 and the “cumulative average cell number” value ([2]; 5 μM, Day 12) was 0. The “cumulative average cell number” value ([2]; 5 μM, Day 16) was 0, the “proliferation of pre-leukaemic B cell progenitors” value ([2]; in words, compared to vehicle) was “inhibited” and the colony number ([3]; 1 μM, Eμ-Myc pre-leukemia pro-B cells, primary colonies) was 104.625. The “colony number, secondary colony formation” value ([3]; 1 μM, Eμ-Myc pre-leukemia pro-B cells, secondary colony formation) was 9.75 and the “proliferation and secondary colony formation of cells expressing the oncogene cMyc” value ([3]; in words) was “equally effective in inhibiting proliferation and secondary colony formation”.
